# In patent US4226610A, “Herbicidal compounds, preparation thereof and herbicides containing the same” (Meiji Selka Kaisha, Ltd., priority 1978, dated 1980):
# Structures can show the parent of a compound that is named as a salt.
# System: water hyacinth
# Test: Experiment 5 foliar application to water hyacinths
# Assay type: in vivo, Eichhornia crassipes Solms
# Set-up: key to Killing index: 0 = no effect, 5 = death
# Conditions: for Reproduction-inhibiting effect: 3 months; for Killing index: 21 days
# Text: The detail of the assessment made in the following Experiments of the invention was as follows:
# Four months after treatment, evaluation was made for inhibition of reproduction expressed in terms of symbols ranging from (-) to (+++) where (-) means no reproduction, namely complete suppression of reproduction, (±) remarkable suppression of reproduction; (+) considerable suppression of reproduction; (++) medium supprestion of reproduction; and (+++) no suppression of reproduction.
# Water was placed in 20 cm.×30 cm. plastic vessels and a liquid fertilizer was added thereto. Two water hyacinths were floated in each vessel.
# 0.1 or 0.2% aqueous solutions of each of the compounds of the invention listed in Table 7 were sprayed by foliar application in an amount of 100 liter per 10 are. As a surfactant, 0.1% of octylphenyl polyoxyethanol was added.
# The killing index (0, no effect; 5, death) after 21 days and 3 months, and the reproduction-inhibiting effect (-, no reproduction; +++, maximum reproduction) after 3 months were determined.
Structure (SMILES),Reproduction-inhibiting effect (0.1%),Reproduction-inhibiting effect (0.2%),Killing index (0.2%)
C[C@H](NC(=O)[C@H](C)NC(=O)[C@@H](N)CCP(C)(=O)O)C(=O)O [SF-1293 diammonium salt],+,-,4.5
CP(=O)(O)CC[C@H](N)C(=O)O [L-AMPB disodium salt],±,-,
CP(=O)(O)CCC(N)C(=O)O (racemic) [DL-AMPB monopotassium salt],++,±,
CP(=O)(O)CCC(N)C(=O)O (racemic) [DL-AMPB mono-n-butylammonium salt],++,±,
CP(=O)(O)CCC(N)C(=O)O (racemic) [DL-AMPB monoisopropylammonium salt],++,±,
CP(=O)(O)CCC(N)C(=O)O (racemic) [DL-AMPB diammonium salt],++,±,
"CP(=O)(O)CC[C@H](N)C(=O)O [L-AMPB, L-2-amino-4-methylphosphinobutanoic acid]",±,-,
CP(=O)(O)CC[C@H](N)C(=O)O [L-AMPB monopotassium salt],±,-,
C[C@H](NC(=O)[C@H](C)NC(=O)[C@@H](N)CCP(C)(=O)O)C(=O)O [SF-1293 monodiisopropylammonium salt],+,-,4.5
CP(=O)(O)CC[C@H](N)C(=O)O [L-AMPB mono-n-butylammonium salt],±,-,
CP(=O)(O)CC[C@H](N)C(=O)O [L-AMPB monoisopropylammonium salt],±,-,
C[C@H](NC(=O)[C@H](C)NC(=O)[C@@H](N)CCP(C)(=O)O)C(=O)O [SF-1293 mono-n-butylammonium salt],+,-,4.5
CP(=O)(O)CCC(N)C(=O)O (racemic) [DL-AMPB disodium salt],++,±,
"C[C@H](NC(=O)[C@H](C)NC(=O)[C@@H](N)CCP(C)(=O)O)C(=O)O [SF-1293, (L-2-amino-4-methylphosphinobutyryl)-L-alanyl-L-alanine]",+,-,4.5
"CP(=O)(O)CCC(N)C(=O)O (racemic) [DL-AMPB, DL-2-amino-4-methylphosphinobutanoic acid]",++,±,
CP(=O)(O)CC[C@H](N)C(=O)O [L-AMPB monodiethylammonium salt],±,-,
CP(=O)(O)CC[C@H](N)C(=O)O [L-AMPB dipotassium salt],±,-,
CP(=O)(O)CC[C@H](N)C(=O)O [L-AMPB diammonium salt],±,-,
CP(=O)(O)CCC(N)C(=O)O (racemic) [DL-AMPB monodiethylammonium salt],++,±,
C[C@H](NC(=O)[C@H](C)NC(=O)[C@@H](N)CCP(C)(=O)O)C(=O)O [SF-1293 monodiethylammonium salt],+,-,4.5
C[C@H](NC(=O)[C@H](C)NC(=O)[C@@H](N)CCP(C)(=O)O)C(=O)O [SF-1293 dipotassium salt],+,-,4.5
CP(=O)(O)CCC(N)C(=O)O (racemic) [DL-AMPB dipotassium salt],++,±,
